Tests used:
CypD = CypD (Homo sapiens, UniProt P30405); assay: CypD PPIase activity, chymotrypsin-coupled assay; format: biochemical; conditions: Table 1
[1] = test system: isolated mouse liver mitochondria; assay: Calcium retention capacity (CRC) assay in isolated liver mitochondria; format: biochemical
[2] = test system: isolated mouse liver mitochondria; assay: Ca2+-induced mitochondrial swelling assay; format: biochemical; conditions: energised isolated mouse liver mitochondria
AML-12 cells [3] = assay: mPTP opening, CoCl2-calcein AM fluorescence-quenching assay, hypoxia/reoxygenation; format: cell-based, mouse; conditions: 1 μM; 4 h hypoxia, 1 h reoxygenation
Experimental: We next evaluated the ability of compounds C105SR and C110SR to inhibit mPTP opening in cells. The hepatocyte cell line AML-12 was subjected to 4 h of hypoxia followed by 1 h of reoxygenation and mPTP opening was monitored using the CoCl2-calcein-acetoxymethyl ester (AM) fluorescence-quenching method.[19] Calcein-AM is a membrane permeable fluorophore which passively diffuses in all subcellular compartments including mitochondria. In the cell, the AM group of the fluorophore is cleaved by ubiquitous intracellular esterases, generating a hydrophilic product that is retained within the cell. The cells are then loaded with the divalent cobalt cation (Co^2+), which quenches calcein fluorescence in all subcellular compartments except the mitochondrial matrix, because the inner mitochondrial membrane is impermeable to cobalt. However, when mPTP is open, cobalt enters mitochondria and quenches mitochondrial calcein fluorescence. […]
Hypoxia/reoxygenation (H/R) in vitro model. AML-12 mouse hepatocyte line was obtained from American Type Culture Collection (ATCC) and maintained in DMEM/F12 culture medium at 37°C with 5% CO2. HepaRG human hepatocyte line was obtained from American Type Culture Collection (ATCC) and maintained in William’S E culture medium at 37°C with 5% CO2.When indicated, cells were incubated in phosphate buffered saline at 37°C in a hypoxic chamber filled with 94% N2, 1% O2, 5% CO2 for 4 h to mimic ischemic conditions. Then, cells were transferred to a CO2 incubator at 37°C in regular DMEM/F12 culture medium for 1 or 2 h under normoxic conditions (74% N2, 21% O2, 5% CO2). SMCypIs or vehicle (DMSO) were added during the hypoxia period, during the reoxygenation period, or during both. CsA and ALV were used as positive controls for hepatic protection against H/R injury.
Monitoring of mPTP opening. mPTP opening was monitored in AML-12 cells using the CoCl2-calcein AM fluorescence-quenching assay. Cells were loaded with 1 µM calcein-AM (green) for 20 min. Then, 1 mM CoCl2 was added and cells were incubated for another 10 min. Cells were washed and subjected to 4 h of hypoxia followed by 1 h of reoxygenation. Calcein fluorescence was measured using a spectrofluorimeter at excitation and emission wavelengths of 485 nm and 535 nm, respectively. Images were acquired using a standard inverted fluorescence microscope (Zeiss Axio, […]
media during the entire H/R period. Images shown are representative images of 12-18 images. […]
Optical density of purple formazan product was measured at 550 nm. […]

AML-12 cells [4] = assay: Propidium iodide staining, hypoxia/reoxygenation; format: cell-based, mouse; conditions: 1 μM; 4 h hypoxia, 1 h reoxygenation
Experimental: To assess whether the new SMCypIs reduced mPTP opening-induced cell death, propidium iodide fluorescence was measured in cells that had been co-loaded with calcein-AM. As expected, the loss of calcein fluorescence in cells subjected to hypoxia/reoxygenation was associated with enhanced propidium iodide fluorescence (Fig. 3A and 3C).
Calcium retention capacity (CRC) assay. Isolated liver mitochondria (1 mg/mL) energized with 5 mM glutamate/malate were incubated in a buffer allowing respiration of mitochondria (100 mM KCl, 50 mM sucrose, 10 mM HEPES, 5 mM KH2PO4, pH 7.4 at 30°C) supplemented with 1 µM calcium green 5N fluorescent probe. Mitochondria were pulsed with sequential additions of CaCl2 (20 µM) until mPTP opening along with rapid calcium release happened. The calcium concentration in the extra-mitochondrial medium was monitored with a Jasco FP-6300 spectrofluorimeter (Jasco, Bouguenais, France) at 506 nm excitation and 532 nm emission wavelengths.
Mitochondrial swelling assay. Mitochondrial swelling was assessed by measuring changes in absorbance at 540 nm using a Jasco V-530 spectrophotometer (Bouguenais, France) equipped with magnetic stirring and thermostatic control (30°C). […]
Monitoring of mPTP opening. mPTP opening was monitored in AML-12 cells using the CoCl2-calcein AM fluorescence-quenching assay. […] Calcein fluorescence was measured using a spectrofluorimeter at excitation and emission wavelengths of 485 nm and 535 nm, respectively. Images were acquired using a standard inverted fluorescence microscope (Zeiss Axio, […]
Propidium iodide staining. […] Fluorescence was measured using an Infinite 200 Pro fluorescent plate reader (Tecan, Mannedorf, Switzerland) at excitation and emission wavelengths of 533 nm and 617 nm, respectively. Images were acquired using a standard inverted fluorescence microscope (Zeiss Axio, Oberkochen, Germany). […]
Cell viability assays. Lactate dehydrogenase (LDH) release in culture medium was assessed using the commercially non-radioactive CytoTox-96 kit (Promega, Madison, Wisconsin) following the manufacturer’s instructions. […]

Sequence of CypD (P30405 30-207): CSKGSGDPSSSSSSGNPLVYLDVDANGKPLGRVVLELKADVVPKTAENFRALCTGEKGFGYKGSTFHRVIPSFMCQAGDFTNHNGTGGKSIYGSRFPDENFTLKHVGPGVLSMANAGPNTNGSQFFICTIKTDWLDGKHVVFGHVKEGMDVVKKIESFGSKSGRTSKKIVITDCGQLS

In the case of `C/C=C/C[C@@H](C)[C@@H](O)[C@H]1C(=O)N[C@@H](CC)C(=O)N(C)[C@H](C)C(=O)N(CC)[C@@H](C(C)C)C(=O)N[C@@H](C(C)C)C(=O)N(C)[C@@H](CC(C)C)C(=O)N[C@@H](C)C(=O)N[C@H](C)C(=O)N(C)[C@@H](CC(C)C)C(=O)N(C)[C@@H](CC(C)C)C(=O)N(C)[C@@H](C(C)C)C(=O)N1C` [ALV, alisporivir, reference compound], the IC50 (CypD) is reported as 30 ± 5 nM, the “amount of Ca2+ required to open mPTP (CRC)” value ([1]; compound at 1 μM, basal 160 ± 8) is reported as 373 ± 59 nmol Ca2+/mg of mitochondrial and the EC50 ([1]; isolated mouse liver mitochondria) is reported as 80 ± 20 nM. For the same compound, the IC50 [2] was 50 ± 20 nM, the “prevention of mPTP opening (loss of calcein fluorescence)” value (AML-12 cells [3]) was “substantially prevented” and the propidium iodide fluorescence (AML-12 cells [4]) was “low propidium iodide fluorescence”.

Source: publication PMC10582583, “The novel cyclophilin inhibitor C105SR reduces hepatic ischaemia–reperfusion injury via mitoprotection” (JHEP Reports, 2023)
